Patent publication US20060264388A1, “Method for treating liver cancer by intrahepatic administration of nemorubicin” (priority 2003, published 2006)

How the values were obtained:
[1] = system: liver lesions of breast cancer patients with liver metastases; conditions: 1500 mcg/m^2 i.v., cited from earlier work
[2] = system: patients with liver cancer; assay: Liver toxicity (SGOT, SGPT, Total Bilirubin), worst CTC Grade by cycle, intrahepatic artery nemorubicin q8wk vs q6wk; format: in vivo, human
Procedure: (§1) The objective of the study was to shorten the time interval between treatment administrations from every 8 weeks (q8wk) of the protocol as reported in WO 00/15203 to every 6 weeks (q6wk). This was done in the attempt of improving the therapeutic potential of nemorubicin treatment through an increase of the dose intensity of the therapy, simultaneously safeguarding patient safety.
(§2) Overall, 13 patients were treated with the q8wk schedule (total 25 cycles administered; doses ranged from 200 to 800 mcg/m^2), and 11 patients were treated with the q6wk schedule (total 32 cycles administered; doses were 200 and 600 mcg/m^2).
(§3) The NCI-Common Tosicity Criteria grading system (CTC Grade), Version 2.0, was used to report toxicities.

[3] = system: liver metastases in colorectal and renal cancer patients; conditions: i.v., cited from earlier work
[4] = system: liver metastases from M5076 murine fibrosarcoma; conditions: cited from earlier work
[5] = system: liver metastases from M5076 murine; conditions: M5076 murine reticulosarcoma; cited from earlier work
[6] = system: tumor cells resistant to L-PAM or cDDP, or cells resistant to Topoisomerase II inhibitors (at-mdr); conditions: cited from earlier work
[7] = system: tumor cells; conditions: mouse, rat and human liver microsomes; cited from earlier work
[8] = system: patients with liver cancer; assay: Hematological toxicity - Platelets, worst CTC Grade by cycle, intrahepatic artery nemorubicin q8wk vs q6wk; format: in vivo, human; conditions: 200 mcg/m^2 q6wk
Procedure: as §1, §2, §3
A slight cumulative effect (i.e., increase in frequency but not in severity) was observed after repeated cycles for leucopenia and neutropenia (Tables 2 and 3), mainly with the q8wk schedule.

[9] = 200 mcg/m^2 q6wk, 12 evaluable cycles
[10] = 200 mcg/m^2 q8wk, 5 evaluable cycles
[11] = 400 mcg/m^2 q8wk, 4 evaluable cycles
[12] = 600 mcg/m^2 q6wk, 17 evaluable cycles
[13] = 600 mcg/m^2 q6wk, 18 evaluable cycles
[14] = 600 mcg/m^2 q8wk, 7 evaluable cycles
[15] = 800 mcg/m^2 q8wk, 5 evaluable cycles
[16] = 800 mcg/m^2 q8wk, 6 evaluable cycles
[17] = All cycles, 11 evaluable cycles

COc1cccc2c1C(=O)c1c(O)c3c(c(O)c1C2=O)C[C@@](O)(C(=O)CO)C[C@@H]3O[C@H]1C[C@H](N2CCO[C@H](OC)C2)[C@H](O)[C@H](C)O1.Cl [nemorubicin, 3′desamino-3′[2(S)methoxy-4-morpholinyl]doxorubicin-hydrochloride]
complete response (CR) in liver lesions ([1]; 6 patients): 1 | partial responses (PRs) in liver lesions (2 confirmed and 1 unconfirmed) ([1]; 6 patients): 3 | patients with response in liver lesions [1]: 4 out of 6 | SGOT, worst CTC Grade by cycle (increased of at least one Grade versus baseline Grade): All Grades (%) [2, 9]: 9 (75%) (%) | SGOT, worst CTC Grade by cycle (increased of at least one Grade versus baseline Grade): Grade 1-2 (%) [2, 9]: 8 (67%) (%) | SGOT, worst CTC Grade by cycle (increased of at least one Grade versus baseline Grade): Grade 3-4 (%) [2, 9]: 1 (8%) (%) | SGPT, worst CTC Grade by cycle (increased of at least one Grade versus baseline Grade): All Grades (%) [2, 9]: 7 (58%) (%) | SGPT, worst CTC Grade by cycle (increased of at least one Grade versus baseline Grade): Grade 1-2 (%) [2, 9]: 7 (58%) (%) | Total Bilirubin, worst CTC Grade by cycle (increased of at least one Grade versus baseline Grade): All Grades (%) [2, 9]: 10 (83%) (%) | Total Bilirubin, worst CTC Grade by cycle (increased of at least one Grade versus baseline Grade): Grade 1-2 (%) [2, 9]: 10 (83%) (%) | SGOT, worst CTC Grade by cycle (increased of at least one Grade versus baseline Grade): All Grades (%) [2, 10]: 3 (60%) (%) | SGOT, worst CTC Grade by cycle (increased of at least one Grade versus baseline Grade): Grade 1-2 (%) [2, 10]: 3 (60%) (%) | SGPT, worst CTC Grade by cycle (increased of at least one Grade versus baseline Grade): All Grades (%) [2, 10]: 4 (80%) (%) | SGPT, worst CTC Grade by cycle (increased of at least one Grade versus baseline Grade): Grade 1-2 (%) [2, 10]: 4 (80%) (%) | Total Bilirubin, worst CTC Grade by cycle (increased of at least one Grade versus baseline Grade): All Grades (%) [2, 10]: 5 (100%) (%) | Total Bilirubin, worst CTC Grade by cycle (increased of at least one Grade versus baseline Grade): Grade 1-2 (%) [2, 10]: 5 (100%) (%) | SGOT, worst CTC Grade by cycle (increased of at least one Grade versus baseline Grade): All Grades (%) [2, 11]: 4 (100%) (%) | SGOT, worst CTC Grade by cycle (increased of at least one Grade versus baseline Grade): Grade 1-2 (%) [2, 11]: 1 (25%) (%) | SGOT, worst CTC Grade by cycle (increased of at least one Grade versus baseline Grade): Grade 3-4 (%) [2, 11]: 3 (75%) (%) | SGPT, worst CTC Grade by cycle (increased of at least one Grade versus baseline Grade): All Grades (%) [2, 11]: 3 (75%) (%) | SGPT, worst CTC Grade by cycle (increased of at least one Grade versus baseline Grade): Grade 1-2 (%) [2, 11]: 2 (50%) (%) | SGPT, worst CTC Grade by cycle (increased of at least one Grade versus baseline Grade): Grade 3-4 (%) [2, 11]: 1 (25%) (%) | Total Bilirubin, worst CTC Grade by cycle (increased of at least one Grade versus baseline Grade): All Grades (%) [2, 11]: 2 (50%) (%) | Total Bilirubin, worst CTC Grade by cycle (increased of at least one Grade versus baseline Grade): Grade 1-2 (%) [2, 11]: 2 (50%) (%) | SGOT, worst CTC Grade by cycle (increased of at least one Grade versus baseline Grade): All Grades (%) [2, 12]: 16 (94%) (%) | SGOT, worst CTC Grade by cycle (increased of at least one Grade versus baseline Grade): Grade 1-2 (%) [2, 12]: 14 (82%) (%) | SGOT, worst CTC Grade by cycle (increased of at least one Grade versus baseline Grade): Grade 3-4 (%) [2, 12]: 2 (12%) (%) | SGPT, worst CTC Grade by cycle (increased of at least one Grade versus baseline Grade): All Grades (%) [2, 13]: 16 (89%) (%) | SGPT, worst CTC Grade by cycle (increased of at least one Grade versus baseline Grade): Grade 1-2 (%) [2, 13]: 14 (78%) (%) | SGPT, worst CTC Grade by cycle (increased of at least one Grade versus baseline Grade): Grade 3-4 (%) [2, 13]: 2 (11%) (%) | Total Bilirubin, worst CTC Grade by cycle (increased of at least one Grade versus baseline Grade): All Grades (%) [2, 13]: 14 (77%) (%) | Total Bilirubin, worst CTC Grade by cycle (increased of at least one Grade versus baseline Grade): Grade 1-2 (%) [2, 13]: 13 (72%) (%) | Total Bilirubin, worst CTC Grade by cycle (increased of at least one Grade versus baseline Grade): Grade 3-4 (%) [2, 13]: 1 (5%) (%) | SGOT, worst CTC Grade by cycle (increased of at least one Grade versus baseline Grade): All Grades (%) [2, 14]: 4 (57%) (%) | SGOT, worst CTC Grade by cycle (increased of at least one Grade versus baseline Grade): Grade 1-2 (%) [2, 14]: 2 (28%) (%) | SGPT, worst CTC Grade by cycle (increased of at least one Grade versus baseline Grade): All Grades (%) [2, 14]: 4 (57%) (%) | SGPT, worst CTC Grade by cycle (increased of at least one Grade versus baseline Grade): Grade 1-2 (%) [2, 14]: 1 (14%) (%) | Total Bilirubin, worst CTC Grade by cycle (increased of at least one Grade versus baseline Grade): All Grades (%) [2, 14]: 7 (100%) (%) | Total Bilirubin, worst CTC Grade by cycle (increased of at least one Grade versus baseline Grade): Grade 1-2 (%) [2, 14]: 7 (100%) (%) | SGOT, worst CTC Grade by cycle (increased of at least one Grade versus baseline Grade): All Grades (%) [2, 15]: 4 (80%) (%) | SGOT, worst CTC Grade by cycle (increased of at least one Grade versus baseline Grade): Grade 1-2 (%) [2, 15]: 1 (20%) (%) | SGOT, worst CTC Grade by cycle (increased of at least one Grade versus baseline Grade): Grade 3-4 (%) [2, 15]: 3 (60%) (%) | Total Bilirubin, worst CTC Grade by cycle (increased of at least one Grade versus baseline Grade): All Grades (%) [2, 15]: 4 (80%) (%) | Total Bilirubin, worst CTC Grade by cycle (increased of at least one Grade versus baseline Grade): Grade 1-2 (%) [2, 15]: 3 (60%) (%) | Total Bilirubin, worst CTC Grade by cycle (increased of at least one Grade versus baseline Grade): Grade 3-4 (%) [2, 15]: 1 (20%) (%) | SGPT, worst CTC Grade by cycle (increased of at least one Grade versus baseline Grade): All Grades (%) [2, 16]: 5 (83%) (%) | SGPT, worst CTC Grade by cycle (increased of at least one Grade versus baseline Grade): Grade 3-4 (%) [2, 16]: 5 (83%) (%) | frequency of transaminitis, grade 3-4 events ([2]; q6wk versus q8wk schedule): lower in the q6wk than in the q8wk schedule | principle toxicities [3]: nausea and vomiting (requiring intravenous antiemetic treatment), myelosuppression and transient elevations in transaminases | antitumor effect observed ([3]; tumor shrinkage at doses of 1250 and 1500 mcg/m^2, 197 patients): regressions of liver metastases were repeatedly observed | efficacy on liver metastases versus solid primary ([4]; administered orally): more effective on the liver metastases than on the solid primary | efficacy relative to oral formulation ([4]; injectable formulation): less effective | best result on survival ([4]; oral formulation, administered daily for 5 days): doubling of survival time | activity against liver metastases, oral versus i.v. [5]: higher after oral administration as compared to the i.v. route | cross-resistance [6]: No cross-resistance | cytotoxic activity in vitro in the presence of liver microsomes [7]: increased | Platelets, worst CTC Grade by cycle: All Grades (%) [8, 17]: 10 (91%) (%) | Platelets, worst CTC Grade by cycle: Grade 1-2 (%) [8, 17]: 10 (91%) (%) | Platelets, worst CTC Grade by cycle: All Grades (%) ([8]; Cycle 1, 5 evaluable cycles): 4 (80%) (%) | Platelets, worst CTC Grade by cycle: Grade 1-2 (%) ([8]; Cycle 1, 5 evaluable cycles): 4 (80%) (%) | Platelets, worst CTC Grade by cycle: All Grades (%) ([8]; Cycles > 1, 6 evaluable cycles): 6 (100%) (%) | Platelets, worst CTC Grade by cycle: Grade 1-2 (%) ([8]; Cycles > 1, 6 evaluable cycles): 6 (100%) (%)
